In patent US20050019331A1, “Synthetic peptide neutrophil cell chemotactic agents” (Chrysalis Biotechnology, priority 1994, published 2005):
pEC50: −log10 of the molar value. Ends that are not written are not given here.

What was measured:
human neutrophils = assay: Neutrophil chemotaxis in Modified Boyden 48-well Microchemotaxis Chambers; format: cell-based; conditions: for maximal stimulation of neutrophil chemotaxis relative to thrombin or IL-8: FIG. 3 vs FIG. 1C
Experimental: Human neutrophils were isolated from blood of healthy volunteers, drawn into one-tenth volume of trisodium citrate. The neutrophils were isolated from the blood using established Ficoll-Hypaque (MONO POLYRESOLVING MEDIUM™) protocol, Kalmer et al. 1988, specifically incorporated herein by reference. The cells were washed in HBSS containing 20 mM HEPES, pH 7.4 (HHBSS), pelleted by centrifugation (600×g), and resuspended into HHBSS at the indicated density. Trypan blue exclusion assays indicated greater than 97% cell viability.
Freshly isolated human neutrophils (150,000 cells per 50 μl) were applied to wells of Modified Boyden 48-well Microchemotaxis Chambers (Neuro Probe, Cabin John, Md.) with pre-wet […], PVP-free polycarbonate membranes (Neuro Probe, Cabin John, Md.) (see Mansfield, et al. 1990, which is specifically incorporated herein by reference). The lower well in these chambers were filled with 27 μl of HHBSS solution containing indicated concentrations of substances to be tested. After loading, the chambers were incubated for 2 hours at 37° C. Membranes were removed, rinsed with HHBSS, fixed and stained using DIFF-QUIK® to visualize and quantitate cells that had migrated through the filters. For each assay condition, cells migrating through 4 wells were examined using a Nikon Microscope (at 400×). For each well, the total cells present in 6 random fields were counted and recorded. Each assay represents data from at least three analyses of the same type with neutrophils isolated from at least two individuals.
Freshly isolated human peripheral blood neutrophils were added to wells of Modified Boyden Microwell Chemotaxis Chambers and the number of cells migrating through the filters was determined as described in Materials and Methods. For each assay, cells migrating through 4 wells were examined, counted, and recorded (6 random fields per well) using a Nikon LabPhot Microscope (400×).
Human neutrophils were added to wells of Boyden Microwell Chambers and assayed for directed chemotaxis toward indicated concentrations of synthetic peptides representing the tethered ligand region of PART (SFLLRNPNDKYEPF—SEQ ID NO.: 7), or TRAP-508, the high-affinity receptor binding domain of human thrombin ([…]—SEQ ID NO.: 8).
Indicated concentrations of peptides representing residues 26-41 of the human (SEQ ID NO.: 1) (∇) or hamster (SEQ ID NO.: 2) (∘) PART receptor component were added to lower wells of Boyden Microwell Chambers and neutrophil chemotaxis toward the peptides was assayed as described above.

fibroblasts [1] = assay: c-fos and other G-protein initiated signals in fibroblasts; format: cell-based; conditions: compared with proteolytically active thrombin
Excerpt: Therefore, the PART activating peptide fragment was not sufficient to stimulate chemotaxis.

neutrophils = assay: Superoxide generation by stimulated neutrophils (SOD-inhibitable ferricytochrome C reduction); format: cell-based, human; conditions: for O2 released (superoxide generation): 2×10^6 neutrophils/ml, twenty minutes after addition
Experimental: Superoxide generation was determined by measuring the superoxide dismutase (SOD)-inhibitable reduction of ferricytochrome C (Thomas et al., 1992, incorporated herein by reference). Briefly, 2×10^6 neutrophils/ml were incubated with, ferricytochrome C (433 μg/ml) and glucose (1.1 mM) in phosphate buffered saline (PBS) at 37° C. for five minutes, in presence or absence of 1 μg/ml SOD. Twenty minutes after addition of NTP, IL-8, or PBS, aliquots were removed, cooled to 4° C., and filtered through […] particle separators (Amicon). The optical absorption of the filtrate was then read at 550 nm. The amount of O2 generated was calculated by the difference in absorbance of the samples with or without SOD, using a 15.5 millimolar extinction coefficient at 550 nm for cytochrome C reduction.

[2] = test system: fibroblasts and other cells; conditions: Van Obberghen-Schilling and Pouyssegur 1993; cited from earlier work
fibroblasts [3] = assay: Parallel 125I-NTP-Y binding studies with fibroblasts
Excerpt: The chemotactic effects of NTP appeared to be mediated by interaction with specific NTP receptor binding sites on the surface of neutrophils.

[4] = test system: NTP receptor on human neutrophils; assay: 125I-NTP-Y saturation binding to neutrophils
Experimental: NTP was radiolabeled using IODO-GEN® (Pierce) catalyzed iodination (Fraker and Speck, 1978, specifically incorporated herein by reference). 5 mCi of Na^125I (Amersham, UK) was incubated in glass tubes coated with IODO-GEN® with 250 μg of HPLC-purified NTP-Y in 250 μl of Phosphate Buffered Saline (PBS), pH 7.2. After 7 minutes, the radiolabeled peptide was separated from free ^125Iodine by its adsorption to a C-18 SEP PAK® column, followed by elution with 100% acetonitrile. The eluted radioactive peptide was then dried under vacuum to remove acetonitrile, rehydrated with PBS, and stored as frozen aliquots (−20° C.) at a concentration of 100 μg/ml.
For saturation binding assays, […] were incubated at 37° C. with indicated concentrations of ^125I-NTP-Y in 100 μl of DV medium containing 20 mM HEPES buffer, pH 7.4, in 0.6 ml eppendorf tubes. The binding was terminated and ^125I-NTP-Y that was bound to cells was separated from free ^125I-NTP-Y by rapid filtration and rinsing (2× with 10 mls of 4° C. PBS) through Whatman GF/C filters, using a Millipore filtration apparatus. Radioactivity on filters was then counted in a gamma counter (Beckman Instruments, Inc., model Gamma 4000). Nonspecific binding of ^125I-NTP-Y was measured in the presence of a 500-fold molar excess of unlabeled peptide and was subtracted from total binding to determine the amount of specific (saturable) binding.
NTP was synthesized with an N-terminal tyrosine (YRRPESKATNATLDPR—SEQ ID NO.: 6), analyzed for chemotactic activity, and radiolabeled as described in methods. […] Specific binding was determined by subtracting the nonspecific binding of ^125I-NTP-Y (binding in the presence of 500-fold molar excess of unlabeled NTP-Y) from the total binding. Insert represents a Scatchard-like analysis of the binding isotherm using total radioactivity in the medium as a measure of free ligand. […]

SFFLRN [reference compound]
neutrophil chemotaxis (human neutrophils; concentrations up to 2000-fold higher than NTP): did not

SFLLRNPNDKYEPF [PART activating peptide fragment, synthetic peptide representing the tethered ligand region of PART, reference compound]
neutrophil chemotaxis (human neutrophils; concentrations up to 7.0 μM, FIG. 2): only marginally chemotactic
stimulation of c-fos and other G-protein initiated signals (fibroblasts [1]): nearly the same extent as proteolytically active thrombin

RRPESKATNA TLDPR (RRPESKATNATLDPR) [SEQ ID NO.: 1, peptide representing residues 26-41 of the human PART receptor component]
maximal stimulation of neutrophil chemotaxis relative to thrombin or IL-8 (human neutrophils): nearly equivalent to that seen with thrombin or IL-8

NTP: released N-terminal fragment peptide of PART; species (human or hamster) not stated at these places (RQPESEMTDATVNPR)
superoxide generation compared to IL-8 (neutrophils; 800 nM NTP vs 400 nmolar IL-8): negligible
O2 released (superoxide generation) (neutrophils; 800 nM NTP): 9 ± 0.9 nmol
neutrophil chemotaxis (human neutrophils; NTP, Example 4): stimulated neutrophil chemotaxis
activity on fibroblasts and other cells [2]: no apparent activity

^125I-NTP-Y: NTP-Y radiolabeled with 125I by IODO-GEN catalyzed iodination (YRRPESKATNATLDPR; also: 125I radiolabel)
specific binding to fibroblasts (fibroblasts [3]): no detectable specific binding
binding to human neutrophils ([4]; 40 min at 37° C., FIG. 5): specified and saturable
NTP receptors per cell (saturation curve and Scatchard-like analysis) ([4]; human neutrophils, FIG. 5 insert): ~3000 receptors per cell
dose-response curve compared with NTP ([4]; iodinated peptide, iodination does not alter peptide activity): nearly identical to NTP

RQPESEMTDA TVNPR (RQPESEMTDATVNPR) [SEQ ID NO.: 2, peptide representing residues 26-41 of the hamster PART receptor component]
maximal stimulation of neutrophil chemotaxis relative to thrombin or IL-8 (human neutrophils): nearly equivalent to that seen with thrombin or IL-8

IL-8: recombinant IL-8
O2 released (superoxide generation) (neutrophils; 400 nmolar IL-8): 102 ± 16 nmol
pEC50 (human neutrophils; FIG. 1, 2 hours at 37° C., read-out: concentration required for half-maximal stimulation of neutrophil chemotaxis): ~8.00
